Data: patent US6350765B1, “Fungicidal mixtures based on amide compounds and azoles” (priority 2000, dated 2002)
Where two headings read alike, the source gives them in different places.

Tested on: Botrytis cinerea
Test: Activity against Botrytis cinerea on bell peppers (fruit disks, protective spray)
Format: in vivo
Conditions: in Capsicum, 96 h, read-out: Efficacy in % of the untreated control
Procedure: The active ingredients, separately or together, are formulated as a 10% emulsion in a mixture of 63% by weight of cyclohexanone and 27% by weight of emulsifier, and diluted with water to the desired concentration.
Evaluation is carried out by determining the infected leaf areas in percent. These percentages are converted into efficacies. The efficacy (W) is calculated as follows using Abbot's formula: […]
α corresponds to the fungal infection of the treated plants in % and β corresponds to the fungal infection of the untreated (control) plants in % An efficacy of 0 means that the infection level of the treated plants corresponds to that of the untreated control plants; an efficacy of 100 means that the treated plants were not infected.
The expected efficacies of the mixtures of the active ingredients were determined using Colby's formula [R. S. Colby, Weeds 15, 20-22 (1967)] and compared with the observed efficacies.
Colby's formula: E=x+y−x·y/100
E expected efficacy, expressed in % of the untreated control, when using the mixture of the active ingredients A and B at the concentrations a and b x efficacy, expressed in % of the untreated control, when using active ingredient A at the concentration a y efficacy, expressed in % of the untreated control, when using active ingredient B at the concentration b Activity against Botrytis cinerea on bell peppers
Disks of green bell peppers were sprayed to runoff point with an aqueous preparation of active ingredient which had been prepared is from a stock solution comprising 10% of active ingredient, 63% of cyclohexanone and 27% of emulsifier. 2 hours after the spray coating had dried on, the fruit disks were inoculated with a spore suspension of Botrytis cinerea containing 1.7×10^6 spores per ml of a 2% strength Biomalz solution. The inoculated fruit disks were subsequently incubated in humid chambers at 18° C. for 4 days. The Botrytis infection on the diseased fruit disks was then evaluated visually.
The visually determined values for the percentage of diseased leaf areas were converted into efficacies as percentage of the untreated control. An efficacy of 0 means the same disease level as in the untreated control, an efficacy of 100 means 0% disease. The expected efficacies for active ingredient combinations were determined using Colby's formula (Colby, S. R. “Calculating synergistic and antagonistic responses of herbicide Combinations”, Weeds, 15, p. 20-22, 1967) and compared with the observed efficacies.

[1] = single active ingredient, 16 ppm in the spray liquor, green bell pepper disks, 4 days at 18° C.
[2] = single active ingredient, 31 ppm in the spray liquor, green bell pepper disks, 4 days at 18° C.

Question: For Fc1ccc(C2(Cn3cncn3)OC2c2ccccc2Cl)cc1 (stereo not shown) [Compound II.5, (Z)-2-(1H-1,2,4-triazol-1-ylmethyl)-2-(4-fluorophenyl)-3-(2-chlorophenyl)-oxirane], which pest or weed control at 16 ppm [1] is on record?
Answer: Its pest or weed control at 16 ppm is 0%.

Question: What about the pest or weed control at 31 ppm [2] of the same molecule?
Answer: The pest or weed control at 31 ppm was 0%.

Question: For O=C(Nc1ccccc1-c1ccc(F)cc1)c1cccnc1Cl [Compound I.1], which pest or weed control at 16 ppm is on record?
Answer: The pest or weed control at 16 ppm was 10%.

Question: And the pest or weed control at 31 ppm?
Answer: The pest or weed control at 31 ppm was 60%.

Question: CCCCC(C#N)(Cn1cncn1)c1ccc(Cl)cc1 (stereo not shown) [Compound II.17, 2-p-chlorophenyl-2-(1H-1,2,4-triazol-1-ylmethyl)hexanenitrile] was tested. Which pest or weed control at 16 ppm [1] did it give?
Answer: Its pest or weed control at 16 ppm is 0%.

Question: For C[Si](Cn1cncn1)(c1ccc(F)cc1)c1ccc(F)cc1 [Compound II.8, bis(4-fluorophenyl)(methyl)(1H-1,2,4-triazol-1-ylmethyl)-silane], which pest or weed control at 16 ppm [1] is on record?
Answer: Its pest or weed control at 16 ppm is 0%.

Question: And the pest or weed control at 31 ppm [2]?
Answer: Its pest or weed control at 31 ppm is 0%.

Question: How did the pest or weed control at 16 ppm turn out when O=C(Nc1ccccc1-c1ccc(Cl)cc1)c1cccnc1Cl [Compound I.2] was run?
Answer: Its pest or weed control at 16 ppm is 80%.

Question: Which results are given for CCCN(CCOc1c(Cl)cc(Cl)cc1Cl)C(=O)n1ccnc1 [Compound II.11, N-propyl-N-[2-(2,4,^6-trichlorophenoxy)ethyl]imidazol-1-carboxamide]?
Answer: pest or weed control at 16 ppm: 0%; pest or weed control at 31 ppm: 0%

Question: How did the pest or weed control at 16 ppm [1] turn out when CCCC1COC(Cn2cncn2)(c2ccc(Cl)cc2Cl)O1 (racemic) [Compound II.12, (±)-1-[2-(2,4-dichlorophenyl)-4-propyl-1,3-dioxolan-2-ylmethyl]-1H-1,2,4-triazole] was run?
Answer: The pest or weed control at 16 ppm was 0%.

Question: For CC(C1CC1)C(O)(Cn1cncn1)c1ccc(Cl)cc1 (stereo not shown) [Compound II.2, 2-(4-chlorophenyl)-3-cyclopropyl-1-(1H-1,2,4-triazol-1-yl)-butan-2-ol], which pest or weed control at 16 ppm [1] is on record?
Answer: The pest or weed control at 16 ppm was 0%.

Question: What about the pest or weed control at 31 ppm [2] of the same molecule?
Answer: The pest or weed control at 31 ppm was 10%.
